Values joined by “and” are separate entries in the source; they are usually repeats but may differ in a detail not shown here. Equal values may be shown once. “Also recorded” adds a separate entry of the source.
Assays:
podocalyxin = assay: Immunoblots of kidney extracts with podocalyxin antibodies (sialylation status); assay type: in vivo, mouse; conditions: after ManNAc treatment, P2
Description: (§1) A rabbit polyclonal antibody was custom prepared against a Gne/Mnk peptide comprising amino acids 588-607 ([…], SEQ ID NO:8), coupled to keyhole limpet hemocyanine, and affinity purified against the corresponding antigenic peptide (Covance). The following additional primary antibodies were commercially obtained: dystrophin (catalog no. ab15277; Abcam); α-dystroglycan (clone IIH6C4; Upstate Biotechnology); laminin-1 (catalog no. L9393; Sigma-Aldrich); podocalyxin (catalog no. PODX11-A; Alpha Diagnostic International); podocin (catalog no. P0372; Sigma-Aldrich); laminin β1 (catalog no. MAB1928; Millipore); desmin (catalog no. 1466-1; Epitomics); α-SMA (SPM332; GeneTex Inc.); PSA-NCAM (catalog no. MAB5324; Millipore); and β-actin (catalog no. AAN01; Cytoskeleton).
The lysates were sonicated and cleared by centrifugation (1000 g for 10 minutes), and the resulting supernatants were assayed for protein (BCA Protein Assay; Pierce Biotechnology). For the neuraminidase enzymatic treatments (FIG. 6E), protein homogenates (25 mg) were incubated for 30 min at 37° C. with 1 mU/mg of neuraminidase (catalog no. N6514; Sigma-Aldrich). Equal amounts of protein ([…]) were electrophoresed on 4%-12% Tris-Glycine gels (Novex; Invitrogen), and electroblotted onto […] Hybond ECL nitrocellulose membranes (GE Healthcare). […]

[1] = Tolerability and growth of ManNAc-treated mice; assay type: in vivo
Procedure: (§2) Breeding pairs of 6-week-old GneM^712T/+ mice were divided into 3 groups. Group I consisted of 9 GneM^712T/+ breeding pairs, who were administered untreated sterilized tap water. Group II consisted of 1 breeding pair of Gne^+/+ mice (wild-type control) and 6 GneM^712T/+ breeding pairs, who were administered water containing 1 mg/ml (˜0.2 g/kg/day) ManNAc (Sigma-Aldrich). […] Group III consisted of 1 Gne^+/+ breeding pair and 7 GneM^712T/+ breeding pairs, who were administered water supplemented with 5 mg/ml (˜1.0 g/kg/day) ManNAc. Water was changed twice weekly. Nursing females continued to be supplied with ManNAc. All mice were weaned from ManNAc at 21 days. Selected whole litters were euthanized at age P2, P6, and P19 for histological, genetic, biochemical, or ultrastructural analysis.

[2] = single dose of 0.142 g/kg/day; cited from earlier work
Gne^M712T/M712T mice [3] = assay: Rescue by ManNAc feeding: survival of homozygous mutant pups (ManNAc in drinking water of breeding pairs); assay type: in vivo, mouse
Description: Gne^M712T/M712T mice. Gne^M712T/M712T knockin mice were generated by targeting the M712T (ATG to ACG) mutation of exon 12 of the murine Gne gene (Gne, Uae1, GenBank NM_015828) (FIG. 2A). The nucleotide sequence for this Gne, Uae1 allele (GenBank NM_015828) without the mutation is shown below for easy reference (SEQ ID NO:3).
The mutant mice were maintained in the C57BL/6J background. Animals were housed in an accredited specific pathogen-free facility in accordance with accepted guidelines. Cages were ventilated in a temperature- and light-controlled environment (22° C., 30%-70% humidity, 12-hour light/12-hour dark cycle). The mice were fed irradiated chow (Prolab 5P75 Isopro 3000; PMI Nutrition International) and sterile water ad libitum. All euthanasia was performed by CO2 inhalation followed by cervical dislocation.
as §2
Differences between data groups were evaluated for significance using the 2-tailed Student's t test of unpaired data. For Mendelian distribution analysis, a goodness-of-fit (χ2) test was performed, while for comparisons of survival between treated and untreated mice of all genotypes (Gne^+/+, GneM^712T/+, and GneM^712T/M712T), a 2-tailed Fisher's exact test using a 2×3 table was employed. All data are presented as the mean±SD. A P value less than 0.05 was considered statistically significant.

Gne/Mnk protein = assay: Immunoblots of muscle and kidney extracts with anti-Gne/Mnk antibodies; assay type: in vivo, mouse
Description: as §1
Mouse tissues (age P2) were extracted, homogenized in CelLytic buffer consisting of a mild detergent, bicine buffer, and 150 mM NaCl (Sigma-Aldrich) supplemented with protease inhibitors (Complete Mini; Roche Applied Science). The lysates were sonicated and cleared by centrifugation (1000 g for 10 minutes), and the resulting supernatants were assayed for protein (BCA Protein Assay; Pierce Biotechnology). For the neuraminidase enzymatic treatments (FIG. 6E), protein homogenates ([…]) were incubated for 30 min at 37° C. with 1 mU/mg of neuraminidase (catalog no. N6514; Sigma-Aldrich). Equal amounts of protein ([…]) were electrophoresed on 4%-12% Tris-Glycine gels (Novex; Invitrogen), and electroblotted onto […] Hybond ECL nitrocellulose membranes (GE Healthcare). The membranes were blocked (10% fat-free milk) and incubated with primary antibodies followed by HRP-conjugated secondary antibodies (GE Healthcare). Results were visualized with ECL (ECL Western Blotting Detection Reagents; GE Healthcare) and exposure to CL-XPosure Film (Pierce Biotechnology). Densitometry was performed on the digital images obtained with a Kodak Image Station and software (PerkinElmer). The protein levels were normalized to those of β-actin to correct for differences in protein loading and/or transfer. […]

Gne/Mnk epimerase = assay: Gne-epimerase enzymatic assay in skeletal muscle of ManNAc-treated mice; assay type: in vivo, mouse
Procedure: as §2
Mouse kidney and skeletal muscle (quadriceps) tissues were homogenized and subjected to the Gne-epimerase enzymatic assay as previously described (11, 58). This assay was based on incubation with radiolabeled substrate (Uridine diphosphate N-acetyl glucosamine [1-^3H]; American Radiolabeled Chemicals Inc.) and detection of radiolabeled product ([^3H]ManNAc) upon separation of oligosaccharides by high-pH anion-exchange chromatography with pulsed amperometric detection (Dionex).

PSA-NCAM = assay: Immunoblots with PSA-NCAM antibodies (sialylation status); assay type: in vivo, mouse
Description: as §1
(§3) Mouse tissues (age P2) were extracted, homogenized in CelLytic buffer consisting of a mild detergent, bicine buffer, and 150 mM NaCl (Sigma-Aldrich) supplemented with protease inhibitors (Complete Mini; Roche Applied Science). The lysates were sonicated and cleared by centrifugation (1000 g for 10 minutes), and the resulting supernatants were assayed for protein (BCA Protein Assay; Pierce Biotechnology). […]
The degree of sialylation of two heavily sialylated marker proteins, PSA-NCAM and podocalyxin was evaluated. […]

laminin-1 = assay: Immunoblots of kidney extracts with laminin-1 antibodies; assay type: in vivo, mouse; conditions: Gne^+/+ and Gne^M712T/M712T littermates
Description: as §1
as §3, with “Biotechnology). For the neuraminidase enzymatic treatments (FIG. 6E), protein homogenates (25 mg) were incubated for 30 min at 37° C. with 1 mU/mg of neuraminidase (catalog no. N6514; Sigma-Aldrich).” for “Biotechnology).”

Gne^M712T/M712T mice [4] = assay: Electron microscopy of kidney glomeruli after ManNAc treatment; assay type: in vivo, mouse; conditions: age P19, versus untreated Gne^M712T/M712T
Procedure: Kidney samples were fixed overnight at 4° C. in 2% glutaraldehyde in 0.1 M cacodylate buffer (pH 7.4) and washed with cacodylate buffer. After postfixation with 1% OsO4 for 2 hours and a second wash with 0.1 M cacodylate buffer, the tissues were serially dehydrated in ethanol and embedded in Eponate 12 resin (Ted Pella). Thin sections (˜80 nm) were obtained using a Leica Ultracut UCT Ultramicrotome (Leica Microsystems), placed onto 400 mesh copper grids, and stained with saturated uranyl acetate in 50% methanol followed by lead citrate. The grids were viewed with a Philips 410 electron microscope (FEI Company) at 80 kV, and images were recorded on Kodak SO-163 film (Kodak).
as §2

[5] = tested on: Gne-deficient mouse embryonic stem cells; conditions: growth medium supplemented with ManNAc; cited from earlier work
Gne^M712T/M712T mice [6] = assay: Mouse histology (H&E) after ManNAc treatment; assay type: in vivo
Procedure: Mouse tissues were collected, formalin fixed (10%) and paraffin embedded. Tissue sections ([…]) were stained with H&E following standard procedures (American Histolabs) or subjected to immunohistochemistry with a variety of primary antibodies. Formalin-fixed tissues were deparaffinized in HistoClear II (National Diagnostics) and […] in a series of ethanol solutions. Antigen retrieval was performed for sections that were to be stained with antibodies against Gne/Mnk (by boiling 5 minutes in citric acid-based solution; Vector Laboratories) and against dystrophin (by boiling in 1 mM EDTA according the manufacturer's protocol; AbCam). The sections were blocked (2% BSA, 10% donkey serum, and 0.1% Triton X-100 in PBS) and incubated with primary antibodies (Gne/Mnk 1:50; laminin 1:25; dystrophin 1:50) overnight at 4° C., followed by incubation with the secondary antibody, Alexa Fluor 488-conjugated donkey anti-rabbit (1:500 in blocking solution) (Invitrogen). The sections were mounted in VECTASHIELD Mounting Medium (Vector Laboratories) and viewed and digitally imaged with a Zeiss Axiovert 200M microscope (Zeiss).
as §2

cultured cells = conditions: incubation of cultured cells; cited from earlier work
[7] = ~1.0 g/kg/d in drinking water, mice
[8] = 3.5 months of age, ManNAc until P21

SMILES: CC(=O)N[C@H]1[C@@H](O)[C@H](O)[C@@H](CO)O[C@H]1O [ManNAc, N-acetyl-D-mannosamine]
- sialylation of podocalyxin in Gne^M712T/M712T kidney (podocalyxin): markedly improved; also recorded: changed significantly
- size of surviving Gne^M712T/M712T mice versus littermates ([1]; ManNAc ~1 g/kg/d): remained smaller than their littermates
- weight of surviving Gne^M712T/M712T mice relative to wild-type littermates ([1]; ManNAc ~1.0 g/kg/day): 70%-100%
- side effects [1, 7]: no side effects were attributed to the treatment
- tolerability [1, 7]: well tolerated
- safety in humans [2]: evidence of the safety
- pups died at age P1-P3 (number) (Gne^M712T/M712T mice [3]; 1 mg/ml (~0.2 g/kg/d), 7 litters): 13
- surviving homozygous Gne^M712T/M712T mice beyond age P3 (Gne^M712T/M712T mice [3]; 1 mg/ml (~0.2 g/kg/day) in drinking water, 51 offspring): no surviving homozygous
- homozygous mutant pups died at age P1-P3 (number) (Gne^M712T/M712T mice [3]; 5 mg/ml (~1 g/kg/d), 13 litters): 14
- Gne^M712T/M712T mice that died between P6 and P12, of the twelve that survived past P3 (Gne^M712T/M712T mice [3]; 5 mg/ml (~1.0 g/kg/day)): nine
- Gne^M712T/M712T pups surviving beyond P3 (number) (Gne^M712T/M712T mice [3]; 5 mg/ml (~1.0 g/kg/day) in drinking water, 102 newborns, P=0.01 vs 1 untreated survivor): 12
- Gne^M712T/M712T mice that survived past P21 (Gne^M712T/M712T mice [3]; 5 mg/ml (~1.0 g/kg/day), ManNAc ceased at P21): Two
- myopathic features of the surviving Gne^M712T/M712T mouse (Gne^M712T/M712T mice [3]; 6 months old, ManNAc until P21): no obvious myopathic features
- survival beyond P3, share of Gne^M712T/M712T pups (Gne^M712T/M712T mice [3]; ManNAc administration): 43%
- Gne/Mnk protein in Gne^M712T/M712T kidney compared with Gne^+/+ littermates (Gne/Mnk protein; after ManNAc (32.1% untreated), relative to β-actin, P=0.006): 62.2%
- Gne/Mnk protein in Gne^M712T/M712T muscle compared with Gne^+/+ littermates (Gne/Mnk protein; after ManNAc (38.5% untreated), relative to β-actin, P=0.12): 68.8%
- Gne/Mnk protein expression in Gne^M712T/M712T tissues versus untreated (Gne/Mnk protein; muscle and kidney, ManNAc feeding): increased
- Gne activity in Gne^M712T/M712T muscle, of untreated Gne^+/+ mean (Gne/Mnk epimerase; homozygous mutant skeletal muscle, after ManNAc (19.4% untreated), n=7, P=0.05): 31% (±8.4)
- Gne activity in Gne^+/+ muscle, of untreated Gne^+/+ mean (Gne/Mnk epimerase; wild-type skeletal muscle, after ManNAc, n=3, P=0.2): 114% (±19.7)
- PSA-NCAM expression in muscle and kidney upon treatment (PSA-NCAM; P2): no change
- increase of PSA-NCAM signal intensity in Gne^M712T/M712T brain versus untreated (PSA-NCAM; brain extracts, P=0.08): 2%-28% and 2% to 28%
- laminin-1 intensity / pattern in kidney without or with ManNAc treatment (laminin-1): No difference
- filtration slits / open slit diaphragms (Gne^M712T/M712T mice [4]): greater number of open slit diaphragms; also recorded: improved
- overall integrity of the GBM (Gne^M712T/M712T mice [4]): significantly improved
- podocyte foot processes (fusion, flattening, formation) (Gne^M712T/M712T mice [4]): less fusion and flattening; also recorded: improved
- sialylation of hyposialylated cells [5]: became resialylated
- kidney histology of Gne^M712T/M712T survivor (urinary space and tubules) (Gne^M712T/M712T mice [6]; [8]): mild red blood cell infiltrations
- skeletal muscle histology of Gne^M712T/M712T survivor (Gne^M712T/M712T mice [6]; [8]): no structural or inflammatory abnormalities
- cystic tubular dilatations in cortex and medulla (Gne^M712T/M712T mice [6]; age P6): fewer cystic tubular dilatations
- kidney histology compared with untreated Gne^M712T/M712T mice at P2 (Gne^M712T/M712T mice [6]; age P6): significant histological improvement
- abnormalities in liver, heart or skeletal muscle tissues (Gne^M712T/M712T mice [6]; age P6, treated Gne^M712T/M712T mice): no abnormalities
- red blood cell infiltrates in tubules and Bowman space (Gne^M712T/M712T mice [6]; age P6, versus untreated at P2): reduced red blood cell infiltrates; also recorded: less severe

SMILES: CC(=O)CCC(=O)N[C@@H]1C(O)O[C@H](CO)[C@@H](O)[C@@H]1O (stereo partly shown) [ManLev, N-levulinoylmannosamine]
- incorporation of sialic acid analogs (SiaLev or SiaNAz) into cell surface glycoconjugates (cultured cells): incorporation of the downstream sialic acid analogs

SMILES: [N-]=[N+]=NCC(=O)N[C@@H]1C(O)O[C@H](CO)[C@@H](O)[C@@H]1O (stereo partly shown) [ManNAz, N-azidoacetyl-mannosamine]
- incorporation of sialic acid analogs (SiaLev or SiaNAz) into cell surface glycoconjugates (cultured cells): incorporation of the downstream sialic acid analogs

Source: US10953026B2, “N-acetyl mannosammine as a therapeutic agent” (THE UNITED STATES OF AMERICA, as represented by the …, priority 2007, dated 2021)
